Data published in patent US20250115620A1, “BRIDGED TRICYCLIC CARBAMOYLPYRIDONE COMPOUNDS AND USES THEREOF” (Gilead Sciences, Inc., priority 2022, published 2025).
Read-outs that look alike come from different tables or passages of the source.

Legend:
in vitro = settings: human, uninfected MT-4 cells
pLAI reporter virus = test: microbe, parasite or virus in culture; type: cell-based, HIV; settings: Human immunodeficiency virus 1, MT4, 72 h
HIV-1 (IIIB) = test: microbe, parasite or virus in culture; type: cell-based; settings: Human immunodeficiency virus 1, IIIB, MT4, 120 h, read-out: MT4 EC50
[1] = HIV-1 (IIIB) in MT-4 cells, 5 days incubation, Cell Titer Glo

Structure (SMILES)	CC50 at 5 days (in vitro)	EC50 (pLAI reporter virus; read-out: RLUC 50% HS EC50)	EC50 (pLAI reporter virus; read-out: RLUC CCM EC50)	EC50 (HIV-1 (IIIB); [1])	EC50 (HIV-1 (IIIB))
CC1=NO[C@@]2(CC[C@H](C)N3C[C@H]2n2cc(C(=O)NCc4c(F)cc(F)cc4F)c(=O)c(O)c2C3=O)[C@H]1F [Example 32, (3′S,4S,5R,7′R)-4-fluoro-12′-hydroxy-3,3′-dimethyl-1′,11′-dioxo-N-(2,4,6-trifluorobenzyl)-1′,4′,5′,11′-tetrahydro-3′H,4H,7′H-spiro[isoxazole-5,6′-[2,7]methanopyrido[1,2-a][1,4]diazonine]-10′-carboxamide]	21.2 µM	261 nM	0.4 nM	1.5 nM	–
C[C@H]1CC[C@]2(CC(CO)=NO2)[C@H]2CN1C(=O)c1c(O)c(=O)c(C(=O)NCc3ccc(F)cc3F)cn12 [Example 16, (3′S,5S,7′R)—N-(2,4-difluorobenzyl)-12′-hydroxy-3-(hydroxymethyl)-3′-methyl-1′,11′-dioxo-1′,4′,5′,11′-tetrahydro-3′H,4H,7′H-spiro[isoxazole-5,6′-[2,7]methanopyrido[1,2-a][1,4]diazonine]-10′-carboxamide]	49.4 µM	52.9 nM	2.8 nM	2.6 nM	–
CC1=NO[C@@]2(CC[C@H](C)N3C[C@H]2n2cc(C(=O)NCc4c(F)cc(F)cc4F)c(=O)c(O)c2C3=O)O1 [Example 92, (3′S,5R,7′R)-12′-hydroxy-3,3′-dimethyl-1′,11′-dioxo-N-(2,4,6-trifluorobenzyl)-1′,4′,5′,11′-tetrahydro-3′H,7′H-spiro[[1,4,2]dioxazole-5,6′-[2,7]methanopyrido[1,2-a][1,4]diazonine]-10′-carboxamide]	24.9 µM	409 nM	0.2 nM	0.7 nM	–
C[C@H]1CC[C@]2(COC(Cc3ccccc3)O2)[C@H]2CN1C(=O)c1c(O)c(=O)c(C(=O)NCc3c(F)cc(F)cc3F)cn12 (stereo partly drawn) [Example 135, (2R,3′S,4R,7′R)-2-benzyl-12′-hydroxy-3′-methyl-1′,11′-dioxo-N-(2,4,6-trifuorobenzyl)-1′,4′,5′,11′-tetrahydro-3′H, 7′H-spiro(f[,3]dioxolane-4,6′-[2,7]methanopyrido[1,2-a][1,4]diazonine]-10′-carboxamide]	6.88 µM	581 nM	2.6 nM	7.1 nM	–
C[C@H]1CC[C@]2(COC(C)(C)O2)[C@H]2CN1C(=O)c1c(O)c(=O)c(C(=O)NCc3c(F)cc(F)cc3F)cn12 [Example 137, (3′S,4R,7′R)-12′-hydroxy-2,2,3′-trimethyl-1′,11′-dioxo-N-(2,4,6-trifluorobenzyl)-1′,4′,5′,11′-tetrahydro-3′H,7′H-spiro[[1,3]dioxolane-4,6′-[2,7]methanopyrido[1,2-a][1,4]diazonine]-10′-carboxamide]	42.4 µM	13.3 nM	0.3 nM	1.5 nM	–
C[C@H]1CC[C@]2(CC(=O)N(Cc3cnn(C)n3)O2)[C@H]2CN1C(=O)c1c(O)c(=O)c(C(=O)NCc3c(F)cc(F)cc3F)cn12 [Example 104, (3′S,5S,7′R)-12′-hydroxy-3′-methyl-2-((2-methyl-2H-1,2,3-triazol-4-yl)methyl)-1′,3,11′-trioxo-N-(2,4,6-trifluorobenzyl)-1′,4′,5′,11′-tetrahydro-3′H,7′H-spiro[isoxazolidine-5,6′-[2,7]methanopyrido[1,2-a][1,4]diazonine]-10′-carboxamide]	≥ 50 µM	0.3 nM	0.9 nM	2.6 nM	–
CC1=NO[C@]2(CC[C@H](C)N3C[C@H]2n2cc(C(=O)NCc4c(F)cc(F)cc4F)c(=O)c(O)c2C3=O)C1 [Example 4, (3′S,5R,7′R)-12′-hydroxy-3,3′-dimethyl-1′,11′-dioxo-N-(2,4,6-trifluorobenzyl)-1′,4′,5′,11′-tetrahydro-3′H,4H,7′H-spiro[isoxazole-5,6′-[2,7]methanopyrido[1,2-a][1,4]diazonine]-10′-carboxamide]	≥ 50 µM	4.6 nM	3 nM	5.7 nM	–
C[C@H]1CC[C@]2(CC(=O)N(Cc3ccc4ccccc4c3)O2)[C@H]2CN1C(=O)c1c(O)c(=O)c(C(=O)NCc3c(F)cc(F)cc3F)cn12 [Example 107, (3′S,5S,7′R)-12′-hydroxy-3′-methyl-2-(naphthalen-2-ylmethyl)-1′,3,11′-trioxo-N-(2,4,6-trifluorobenzyl)-1′,4′,5′,11′-tetrahydro-3′H,7′H-spiro[isoxazolidine-5,6′-[2,7]methanopyrido[1,2-a][1,4]diazonine]-10′-carboxamide]	≥ 50 µM	10.2 nM	0.3 nM	0.8 nM	–
COC[C@@H]1CO[C@]2(CC[C@H](C)N3C[C@H]2n2cc(C(=O)NCc4c(F)cc(F)cc4F)c(=O)c(O)c2C3=O)O1 (single isomer, unassigned) [168 (peak 2)]	37 µM	16.4 nM	0.6 nM	2 nM	–
C[C@H]1CC[C@]2(CC(CF)=NO2)[C@H]2CN1C(=O)c1c(O)c(=O)c(C(=O)NCc3ccc(F)cc3F)cn12 [Example 17, (3′S,5S,7′R)—N-(2,4-difluorobenzyl)-3-(fluoromethyl)-12′-hydroxy-3′-methyl-1′,11′-dioxo-1′,4′,5′,11′-tetrahydro-3′H,4H,7′H-spiro[isoxazole-5,6′-[2,7]methanopyrido[1,2-a][1,4]diazonine]-10′-carboxamide]	20.5 µM	226 nM	0.2 nM	0.6 nM	–
CC1=NO[C@@]2(CC[C@H](C)N3C[C@H]2n2cc(C(=O)NCc4ccc(F)cc4F)c(=O)c(O)c2C3=O)[C@H]1F (single isomer, unassigned) [Example 27 (peak 1)]	33.1 µM	175 nM	0.2 nM	1.3 nM	–
CO[C@H]1CS[C@]2(CC[C@H](C)N3C[C@H]2n2cc(C(=O)NCc4c(F)cc(F)cc4F)c(=O)c(O)c2C3=O)O1 (single isomer, unassigned) [170 (peak 1)]	42 µM	5 nM	0.3 nM	1.3 nM	–
C[C@H]1CC[C@]2(CC(=O)N(Cc3cccc(C(F)(F)F)c3)O2)[C@H]2CN1C(=O)c1c(O)c(=O)c(C(=O)NCc3c(F)cc(F)cc3F)cn12 [Example 111, (3′S,5S,7′R)-12′-hydroxy-3′-methyl-1′,3,11′-trioxo-N-(2,4,6-trifluorobenzyl)-2-(3-(trifluoromethyl)benzyl)-1′,4′,5′,11′-tetrahydro-3′H,7′H-spiro[isoxazolidine-5,6′-[2,7]methanopyrido[1,2-a][1,4]diazonine]-10′-carboxamide]	7.23 µM	1.9 nM	0.4 nM	2.3 nM	–
C[C@H]1CC[C@]2(CC(CCCCCl)=NO2)[C@H]2CN1C(=O)c1c(O)c(=O)c(C(=O)NCc3c(F)cc(F)cc3F)cn12 [Example 10, (3′S,5S,7′R)-3-(4-chlorobutyl)-12′-hydroxy-3′-methyl-1′,11′-dioxo-N-(2,4,6-trifluorobenzyl)-1′,4′,5′,11′-tetrahydro-3′H,4H,7′H-spiro[isoxazole-5,6′-[2,7]methanopyrido[1,2-a][1,4]diazonine]-10′-carboxamide]	5.86 µM	5.5 nM	1 nM	1.7 nM	–
C[C@H]1CC[C@]2(CC(N3CCC3)=NO2)[C@H]2CN1C(=O)c1c(O)c(=O)c(C(=O)NCc3c(F)cc(F)cc3F)cn12 [Example 74, (3′S,5S,7′R)-3-(azetidin-1-yl)-12′-hydroxy-3′-methyl-1′,11′-dioxo-N-(2,4,6-trifluorobenzyl)-1′,4′,5′,11′-tetrahydro-3′H,4H,7′H-spiro[isoxazole-5,6′-[2,7]methanopyrido[1,2-a][1,4]diazonine]-10′-carboxamide]	22.3 µM	4.9 nM	0.4 nM	–	2.1 nM
C[C@H]1CC[C@@]2(COC(Cc3ccccc3)O2)[C@H]2CN1C(=O)c1c(O)c(=O)c(C(=O)NCc3c(F)cc(F)cc3F)cn12 (stereo partly drawn) [Example 136, (3′S,4S,7′R)-2-benzyl-12′-hydroxy-3′-methyl-1′,11′-dioxo-N-(2,4,6-trifluorobenzyl)-1′,4′,5′,11′-tetrahydro-3′H,7′H-spiro[[1,3]dioxolane-4,6′-[2,7]methanopyrido[1,2-a][1,4]diazonine]-10′-carboxamide]	16.6 µM	8.7 nM	1.7 nM	–	5.8 nM
CSC1=NO[C@@]2(CC[C@H](C)N3C[C@H]2n2cc(C(=O)NCc4c(F)cc(F)cc4F)c(=O)c(O)c2C3=O)C1 [Example 43, (3′S,5S,7′R)-12′-hydroxy-3′-methyl-3-(methylthio)-1′,11′-dioxo-N-(2,4,6-trifluorobenzyl)-1′,4′,5′,11′-tetrahydro-3′H,4H,7′H-spiro[isoxazole-5,6′-[2,7]methanopyrido[1,2-a][1,4]diazonine]-10′-carboxamide]	33.4 µM	279 nM	1.5 nM	6.1 nM	–
CC1=NO[C@@]2(CC[C@H](C)N3C[C@H]2n2cc(C(=O)NCc4c(F)cc(F)cc4F)c(=O)c(O)c2C3=O)C1 [Example 3, (3′S,5S,7′R)-12′-hydroxy-3,3′-dimethyl-1′,11′-dioxo-N-(2,4,6-trifluorobenzyl)-1′,4′,5′,11′-tetrahydro-3′H,4H,7′H-spiro[isoxazole-5,6′-[2,7]methanopyrido[1,2-a][1,4]diazonine]-10′-carboxamide]	20.1 µM	71.2 nM	0.2 nM	0.9 nM	–
C[C@H]1CC[C@]2(CO2)[C@H]2CN1C(=O)c1c(O)c(=O)c(C(=O)NCc3c(F)cc(F)cc3F)cn12 [Example 165, (2R,3′S,7′R)-12′-hydroxy-3′-methyl-1′,11′-dioxo-N-(2,4,6-trifluorobenzyl)-1′,4′,5′,11′-tetrahydro-3′H,7′H-spiro[oxirane-2,6′-[2,7]methanopyrido[1,2-a][1,4]diazonine]-10′-carboxamide]	6.59 µM	5.4 nM	0.3 nM	1.4 nM	–
